{
  "source": "patent US9725437B2",
  "about": "“Fatty acid synthase inhibitors” (GlaxoSmithKline Intellectual Property (No.2) Limited, priority 2013, dated 2017)",
  "key": {"[1]": {"test": "Rat pharmacokinetic study (iv clearance, oral exposure)", "assay_type": "in vivo", "details": "for Rat iv CI: in vivo clearance, average of 1 to 4 animals; for Rat po DNAUC: dose-normalized AUC, 2-3 animals per experiment", "method": "(§1) Mouse and rat pharmacokinetic studies were performed generally as described in Xiang et al. (Preclinical drug metabolism and pharmacokinetic evaluation of GW844520, a novel mitochondrial electron transport inhibitor. H Xiang, J McSurdy-Freed, G Subbanagounder, E Hugger, R Bambal, C Han, S Ferrar, D Gargallo and CB Davis. (2006) Journal of Pharmaceutical Sciences, 95:2657-2672) and Davis et al. (Comparative preclinical drug metabolism and pharmacokinetic evaluation of novel 4-aminoquinoline anti-malarials. C B Davis, R Bambal, G S Moorthy, E Hugger, H Xiang, B Kevin Park, A E Shone, P M O'Neill and S A Ward (2009) Journal of Pharmaceutical Sciences, 98:362-377) with the following exceptions. For some mouse studies, cannulated animals were used and serial blood samples were collected from the individuals (n=2/compound/route of administration) as opposed to using a composite study design. In some iv rat studies, drugs were infused for 1 or 2 h and a single blood sample collected to estimate clearance assuming steady-state conditions (n=2/compound). This assay was employed as an initial PK screen to prioritize compounds for further study.\n(§2) Rodent pharmacokinetic (PK) data were collected on the exemplified compounds according to the methods described above. In vivo clearance (Cl) data are reported as the average of 1 to 4 animals across 1 to 2 experiments and are categorized as follows. In rats, a ‘low’ clearance is designated as <17 mL/min/kg, a ‘moderate’ clearance is designated as 17-39 mL/min/kg, and a ‘high’ clearance is designated as >39 mL/min/kg. In mice, a ‘low’ clearance is designated as <30 mL/min/kg, a ‘moderate’ clearance is designated as 30-70 mL/min/kg, and a ‘high’ clearance is designated as >70 mL/min/kg. In vivo oral exposure (po) data, reported as average dose-normalized AUCs (DNAUC) per experiment of 2-3 animals, are categorized as ‘poor’ for DNAUC ≦101 ng·h/mL/mg/kg and ‘good’ for DNAUC >101 ng·h/mL/mg/kg. When multiple experiments were performed under different conditions, the totality of the data was considered. In cases where both ‘poor’ and ‘good’ oral exposures were observed, a designation of ‘mixed’ is utilized to represent mixed and unoptimized results."}, "[2]": {"test": "Mouse pharmacokinetic study (iv clearance, oral exposure)", "assay_type": "in vivo", "parameters": "key to Mouse po DNAUC: ‘poor’ for DNAUC ≦101 ng·h/mL/mg/kg; ‘good’ for DNAUC >101 ng·h/mL/mg/kg; In cases where both ‘poor’ and ‘good’ oral exposures were observed, a designation of ‘mixed’ is utilized", "details": "for Mouse iv CI: in vivo clearance, average of 1 to 4 animals; for Mouse po DNAUC: dose-normalized AUC, 2-3 animals per experiment", "method": "as §1, §2"}},
  "data": [
    {"smiles": "O=C(C1CC1)N1CC[C@@H](Cc2n[nH]c(=O)n2-c2ccc(-c3ccc4cccnc4c3)cc2F)C1", "note": "[#124 from WO2011/103546A1, 5-{[(3S)-1-(cyclopropylcarbonyl)-3-pyrrolidinyl]methyl}-4-[2-fluoro-4-(7-quinolinyl)phenyl]-2,4-dihydro-3H-1,2,4-triazol-3-one, reference compound]", "values": [
      {"measurement": "Rat iv CI", "setting": "[1]", "value": "high (a ‘high’ clearance is designated as >39 mL/min/kg)"},
      {"measurement": "Rat po DNAUC", "setting": "[1]", "value": "poor (‘poor’ for DNAUC ≦101 ng·h/mL/mg/kg)"},
      {"measurement": "Mouse iv CI", "setting": "[2]", "value": "moderate (a ‘moderate’ clearance is designated as 30-70 mL/min/kg)"},
      {"measurement": "Mouse po DNAUC", "setting": "[2]", "value": "poor (‘poor’ for DNAUC ≦101 ng·h/mL/mg/kg)"}
    ]},
    {"smiles": "CCC(=O)N1CC[C@@H](Cc2n[nH]c(=O)n2-c2ccc(-c3ccc4cccnc4c3)cc2F)C1", "note": "[#196 from WO2011/103546A1, 4-[2-fluoro-4-(7-quinolinyl)phenyl]-5-{[(3S)-1-propanoyl-3-pyrrolidinyl]methyl}-2,4-dihydro-3H-1,2,4-triazol-3-one, reference compound]", "values": [
      {"measurement": "Rat iv CI", "setting": "[1]", "value": "moderate (a ‘moderate’ clearance is designated as 17-39 mL/min/kg)"},
      {"measurement": "Rat po DNAUC", "setting": "[1]", "value": "poor (‘poor’ for DNAUC ≦101 ng·h/mL/mg/kg)"},
      {"measurement": "Mouse iv CI", "setting": "[2]", "value": "moderate (a ‘moderate’ clearance is designated as 30-70 mL/min/kg)"},
      {"measurement": "Mouse po DNAUC", "setting": "[2]", "value": "poor (‘poor’ for DNAUC ≦101 ng·h/mL/mg/kg)"}
    ]},
    {"smiles": "Cc1cnc2cc(-c3ccc(-n4c(C[C@@H]5CCN(C(=O)C6CC6)C5)n[nH]c4=O)c(F)c3)ccc2c1", "note": "[Example 1, (S)-3-((1-(cyclopropanecarbonyl)pyrrolidin-3-yl)methyl)-4-(2-fluoro-4-(3-methylquinolin-7-yl)phenyl)-1H-1,2,4-triazol-5(4H)-one]", "values": [
      {"measurement": "Rat iv CI", "setting": "[1]", "value": "moderate (a ‘moderate’ clearance is designated as 17-39 mL/min/kg)"},
      {"measurement": "Rat po DNAUC", "setting": "[1]", "value": "poor (‘poor’ for DNAUC ≦101 ng·h/mL/mg/kg)"},
      {"measurement": "Mouse iv CI", "setting": "[2]", "value": "low (In mice, a ‘low’ clearance is designated as <30 mL/min/kg)"},
      {"measurement": "Mouse po DNAUC", "setting": "[2]", "value": "good (‘good’ for DNAUC >101 ng·h/mL/mg/kg)"}
    ]},
    {"smiles": "O=C(C1CC1)N1CC[C@@H](Cc2n[nH]c(=O)n2-c2ccc(-c3ccc4cc(Cl)cnc4c3)cc2F)C1", "note": "[Example 2, (S)-4-(4-(3-chloroquinolin-7-yl)-2-fluorophenyl)-3-((1-(cyclopropanecarbonyl)pyrrolidin-3-yl)methyl)-1H-1,2,4-triazol-5(4H)-one]", "values": [
      {"measurement": "Rat iv CI", "setting": "[1]", "value": "moderate (a ‘moderate’ clearance is designated as 17-39 mL/min/kg)"},
      {"measurement": "Rat po DNAUC", "setting": "[1]", "value": "good (‘good’ for DNAUC >101 ng·h/mL/mg/kg)"},
      {"measurement": "Mouse iv CI", "setting": "[2]", "value": "low (In mice, a ‘low’ clearance is designated as <30 mL/min/kg)"},
      {"measurement": "Mouse po DNAUC", "setting": "[2]", "value": "good (‘good’ for DNAUC >101 ng·h/mL/mg/kg)"}
    ]},
    {"smiles": "O=C(C1CC1)N1CC[C@@H](Cc2n[nH]c(=O)n2-c2ccc(-c3ccc4cc(F)cnc4c3)cc2F)C1", "note": "[Example 3, (S)-3-((1-(cyclopropanecarbonyl)pyrrolidin-3-yl)methyl)-4-(2-fluoro-4-(3-fluoroquinolin-7-yl)phenyl)-1H-1,2,4-triazol-5(4H)-one]", "values": [
      {"measurement": "Rat iv CI", "setting": "[1]", "value": "moderate (a ‘moderate’ clearance is designated as 17-39 mL/min/kg)"}
    ]},
    {"smiles": "CCC(=O)N1CC[C@@H](Cc2n[nH]c(=O)n2-c2ccc(-c3ccc4cc(F)cnc4c3)cc2F)C1", "note": "[Example 4, (S)-4-(2-fluoro-4-(3-fluoroquinolin-7-yl)phenyl)-3-((1-propionylpyrrolidin-3-yl)methyl)-1H-1,2,4-triazol-5(4H)-one]", "values": [
      {"measurement": "Rat iv CI", "setting": "[1]", "value": "low (In rats, a ‘low’ clearance is designated as <17 mL/min/kg)"},
      {"measurement": "Rat po DNAUC", "setting": "[1]", "value": "poor (‘poor’ for DNAUC ≦101 ng·h/mL/mg/kg)"},
      {"measurement": "Mouse iv CI", "setting": "[2]", "value": "low (In mice, a ‘low’ clearance is designated as <30 mL/min/kg)"},
      {"measurement": "Mouse po DNAUC", "setting": "[2]", "value": "good (‘good’ for DNAUC >101 ng·h/mL/mg/kg)"}
    ]},
    {"smiles": "CCC(=O)N1CC[C@@H](Cc2n[nH]c(=O)n2-c2ccc(-c3ccc4cc(C)cnc4c3)cc2F)C1", "note": "[Example 5, (S)-4-(2-fluoro-4-(3-methylquinolin-7-yl)phenyl)-3-((1-propionylpyrrolidin-3-yl)methyl)-1H-1,2,4-triazol-5(4H)-one]", "values": [
      {"measurement": "Rat iv CI", "setting": "[1]", "value": "low (In rats, a ‘low’ clearance is designated as <17 mL/min/kg)"},
      {"measurement": "Rat po DNAUC", "setting": "[1]", "value": "good (‘good’ for DNAUC >101 ng·h/mL/mg/kg)"},
      {"measurement": "Mouse iv CI", "setting": "[2]", "value": "low (In mice, a ‘low’ clearance is designated as <30 mL/min/kg)"},
      {"measurement": "Mouse po DNAUC", "setting": "[2]", "value": "mixed"}
    ]},
    {"smiles": "CCC(=O)N1CC[C@@H](Cc2n[nH]c(=O)n2-c2ccc(-c3ccc4cc(Cl)cnc4c3)cc2F)C1", "note": "[Example 6, (S)-4-(4-(3-chloroquinolin-7-yl)-2-fluorophenyl)-3-((1-propionylpyrrolidin-3-yl)methyl)-1H-1,2,4-triazol-5(4H)-one]", "values": [
      {"measurement": "Rat iv CI", "setting": "[1]", "value": "moderate (a ‘moderate’ clearance is designated as 17-39 mL/min/kg)"},
      {"measurement": "Rat po DNAUC", "setting": "[1]", "value": "good (‘good’ for DNAUC >101 ng·h/mL/mg/kg)"},
      {"measurement": "Mouse iv CI", "setting": "[2]", "value": "low (In mice, a ‘low’ clearance is designated as <30 mL/min/kg)"},
      {"measurement": "Mouse po DNAUC", "setting": "[2]", "value": "mixed"}
    ]},
    {"smiles": "CCC(=O)N1CC[C@@H](Cc2nn(C)c(=O)n2-c2ccc(-c3ccc4cc(C)cnc4c3)cc2F)C1", "note": "[Example 7, (S)-4-(2-fluoro-4-(3-methylquinolin-7-yl)phenyl)-1-methyl-3-((1-propionylpyrrolidin-3-yl)methyl)-1H-1,2,4-triazol-5(4H)-one]", "values": [
      {"measurement": "Rat iv CI", "setting": "[1]", "value": "low (In rats, a ‘low’ clearance is designated as <17 mL/min/kg)"},
      {"measurement": "Rat po DNAUC", "setting": "[1]", "value": "good (‘good’ for DNAUC >101 ng·h/mL/mg/kg)"},
      {"measurement": "Mouse iv CI", "setting": "[2]", "value": "low (In mice, a ‘low’ clearance is designated as <30 mL/min/kg)"},
      {"measurement": "Mouse po DNAUC", "setting": "[2]", "value": "good (‘good’ for DNAUC >101 ng·h/mL/mg/kg)"}
    ]},
    {"smiles": "CCC(=O)N1CC[C@@H](Cc2nn(C)c(=O)n2-c2ccc(-c3ccc4cc(Cl)cnc4c3)cc2F)C1", "note": "[Example 8, (S)-4-(4-(3-chloroquinolin-7-yl)-2-fluorophenyl)-1-methyl-3-((1-propionylpyrrolidin-3-yl)methyl)-1H-1,2,4-triazol-5(4H)-one]", "values": [
      {"measurement": "Rat iv CI", "setting": "[1]", "value": "low (In rats, a ‘low’ clearance is designated as <17 mL/min/kg)"},
      {"measurement": "Rat po DNAUC", "setting": "[1]", "value": "good (‘good’ for DNAUC >101 ng·h/mL/mg/kg)"},
      {"measurement": "Mouse iv CI", "setting": "[2]", "value": "low (In mice, a ‘low’ clearance is designated as <30 mL/min/kg)"},
      {"measurement": "Mouse po DNAUC", "setting": "[2]", "value": "good (‘good’ for DNAUC >101 ng·h/mL/mg/kg)"}
    ]},
    {"smiles": "Cn1nc(C[C@@H]2CCN(C(=O)C3CC3)C2)n(-c2ccc(-c3ccc4cc(Cl)cnc4c3)cc2F)c1=O", "note": "[Example 9, (S)-4-(4-(3-chloroquinolin-7-yl)-2-fluorophenyl)-3-((1-(cyclopropanecarbonyl)pyrrolidin-3-yl)methyl)-1-methyl-1H-1,2,4-triazol-5(4H)-one]", "values": [
      {"measurement": "Rat iv CI", "setting": "[1]", "value": "moderate (a ‘moderate’ clearance is designated as 17-39 mL/min/kg)"},
      {"measurement": "Rat po DNAUC", "setting": "[1]", "value": "good (‘good’ for DNAUC >101 ng·h/mL/mg/kg)"},
      {"measurement": "Mouse iv CI", "setting": "[2]", "value": "low (In mice, a ‘low’ clearance is designated as <30 mL/min/kg)"}
    ]},
    {"smiles": "CCC(=O)N1CC[C@@H](Cc2nn(C)c(=O)n2-c2ccc(-c3ccc4cc(F)cnc4c3)cc2F)C1", "note": "[Example 10, (S)-4-(2-fluoro-4-(3-fluoroquinolin-7-yl)phenyl)-1-methyl-3-((1-propionylpyrrolidin-3-yl)methyl)-1H-1,2,4-triazol-5(4H)-one]", "values": [
      {"measurement": "Rat iv CI", "setting": "[1]", "value": "low (In rats, a ‘low’ clearance is designated as <17 mL/min/kg)"},
      {"measurement": "Mouse iv CI", "setting": "[2]", "value": "low (In mice, a ‘low’ clearance is designated as <30 mL/min/kg)"}
    ]}
  ]
}
